This passage reports IC50 results from patent US20110009399A1, “ORGANIC COMPOUNDS” (priority 2007, published 2011).

Molecules are shown by their SMILES.

For orientation: IC50 means the concentration needed to halve the response being measured.

For the assay, the target named is T1, renin (Homo sapiens, UniProt P00797).
T1 construct: This test measures the formation of angiotensin I in human plasma; from tissue; host or cells: human plasma
T1 sequence (P00797 67-406): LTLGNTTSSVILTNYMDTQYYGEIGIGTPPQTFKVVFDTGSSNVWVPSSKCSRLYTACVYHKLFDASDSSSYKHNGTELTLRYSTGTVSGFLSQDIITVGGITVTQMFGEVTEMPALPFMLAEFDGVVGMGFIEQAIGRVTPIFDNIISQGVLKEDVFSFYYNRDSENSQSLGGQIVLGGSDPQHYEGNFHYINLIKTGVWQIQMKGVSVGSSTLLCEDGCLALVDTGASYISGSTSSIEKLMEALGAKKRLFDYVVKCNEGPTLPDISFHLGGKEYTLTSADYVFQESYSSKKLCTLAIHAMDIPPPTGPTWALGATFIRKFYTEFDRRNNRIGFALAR
In words: in vitro test of Nussberger et al.: formation of angiotensin I in human plasma, radioimmunoassay. The following applies: values given as 'in the range of about', read-out: IC50, inhibition of the formation of angiotensin I. Type of assay: biochemical. The protocol:
The effect of renin inhibitors is detected inter alia experimentally by means of in vitro tests where the reduction in the formation of angiotensin I is measured in various systems (human plasma, purified human renin together with synthetic or natural renin substrate). The following in vitro test of Nussberger et al. (1987) J. Cardiovascular Pharmacol., Vol. 9, pp. 39-44, is used inter alia. This test measures the formation of angiotensin I in human plasma. The amount of angiotensin I formed is determined in a subsequent radioimmunoassay. The effect of inhibitors on the formation of angiotensin I is tested in this system by adding various concentrations of these substances. […] The compounds of the present invention show inhibitory effects in the in vitro systems at minimal concentrations of about 10^−6 to about 10^−10 mol/l.

`COCCCN1CCOc2ccc(CO[C@H]3CNCC[C@@]34OCc3cc(COC[C@@H](C)COC)ccc34)cc21` [Example 7, (1S,3′S)-5-({[(2S)-3-methoxy-2-methylpropyl]oxy}methyl)-3′-{[4-(3-methoxy-propyl)-3,4-dihydro-2H-1,4-benzoxazin-6-yl]methoxy}-3H-spiro[2-benzofuran-1,4′-piperidine]]: the IC50 was in the range of 1 to 20 nM.
In the case of `CCOC(C)COCc1ccc2c(c1)OCCOC21CCNCC1OCc1ccc2c(c1)N(CCCOC)CCO2` [Example 14, (3′S,5S)-8-({[(2R)-2-Ethoxypropyl]oxy}methyl)-3′-{[4-(3-methoxypropyl)-3,4-dihydro-2H-1,4-benzoxazin-6-yl]methoxy}-2,3-dihydrospiro[1,4-benzo-dioxepine-5,4′-piperidine]] it was 1 to 20 nM; in that of `CCO[C@H](C)COCc1ccc2c(c1)CCO[C@@]21CCNC[C@@H]1OCc1ccc2c(c1)N(CCCOC)CCO2` [Example 2, (1S,3′S)-6-({[(2R)-2-Ethoxypropyl]oxy}methyl)-3′-{[4-(3-methoxypropyl)-3,4-dihydro-2H-1,4-benzoxazin-6-yl]methoxy}-3,4-dihydrospiro[isochromene-1,4′-piperidine]], 1 to 20 nM.
